Data as given in publication PMC10239507, “Development of allosteric and selective CDK2 inhibitors for contraception with negative cooperativity to cyclin binding” (Nature Communications, 2023).

Tests used:
Test in all cases: biochemical
[1] = target: T1, 371 kinases (kinase named in each endpoint) (Homo sapiens, UniProt Q96KB5); conditions: PBK/TOPK
T1 construct: purchased Reaction Biology

[2] = target: T2, 371 kinases (kinase named in each endpoint) (Homo sapiens, UniProt Q15569); conditions: TESK1
T2 construct: purchased Reaction Biology

[3] = target: T3, 371 kinases (kinase named in each endpoint) (Homo sapiens, UniProt P29323); conditions: EPHB2
T3 construct: purchased Reaction Biology

[4] = target: T4, 371 kinases (kinase named in each endpoint) (Homo sapiens, UniProt Q8IW41); conditions: MAPKAPK5/PRAK
T4 construct: purchased Reaction Biology

[5] = target: T5, 371 kinases (kinase named in each endpoint) (Homo sapiens, UniProt Q9Y4K4); conditions: KHS/MAP4K5
T5 construct: purchased Reaction Biology

[6] = target: T6, 371 kinases (kinase named in each endpoint) (Homo sapiens, UniProt Q9P286); conditions: PAK5
T6 construct: purchased Reaction Biology

[7] = target: T7, 371 kinases (kinase named in each endpoint) (Homo sapiens, UniProt P08922); conditions: ROS/ROS1
T7 construct: purchased Reaction Biology

[8] = target: T8, 371 kinases (kinase named in each endpoint) (Homo sapiens, UniProt Q9NQU5); conditions: PAK6
T8 construct: purchased Reaction Biology

[9] = target: T9, 371 kinases (kinase named in each endpoint) (Homo sapiens, UniProt O00238); conditions: ALK6/BMPR1B
T9 construct: purchased Reaction Biology
T9 sequence (O00238 14-502): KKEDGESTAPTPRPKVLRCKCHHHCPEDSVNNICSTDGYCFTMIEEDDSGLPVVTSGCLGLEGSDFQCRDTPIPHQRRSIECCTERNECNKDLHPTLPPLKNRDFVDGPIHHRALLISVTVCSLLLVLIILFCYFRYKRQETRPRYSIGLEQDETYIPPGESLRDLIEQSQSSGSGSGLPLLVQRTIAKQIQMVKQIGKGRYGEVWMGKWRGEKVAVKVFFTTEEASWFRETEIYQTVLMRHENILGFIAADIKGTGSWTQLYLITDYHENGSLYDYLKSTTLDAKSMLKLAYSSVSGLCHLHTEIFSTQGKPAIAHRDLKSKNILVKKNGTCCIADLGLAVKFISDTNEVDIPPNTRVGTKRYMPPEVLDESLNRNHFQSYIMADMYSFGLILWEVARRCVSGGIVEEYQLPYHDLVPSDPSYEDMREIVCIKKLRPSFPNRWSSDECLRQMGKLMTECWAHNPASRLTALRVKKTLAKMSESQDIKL

[10] = target: T10, 371 kinases (kinase named in each endpoint) (Homo sapiens, UniProt O95747); conditions: OSR1/OXSR1
T10 construct: purchased Reaction Biology

[11] = target: T11, 371 kinases (kinase named in each endpoint) (Homo sapiens, UniProt P37023); conditions: ALK1/ACVRL1
T11 construct: purchased Reaction Biology

[12] = target: T12, 371 kinases (kinase named in each endpoint) (Homo sapiens, UniProt P53350); conditions: PLK1
T12 construct: purchased Reaction Biology

[13] = target: T13, 371 kinases (kinase named in each endpoint) (Homo sapiens, UniProt P35968); conditions: KDR/VEGFR2
T13 construct: purchased Reaction Biology

[14] = target: T14, 371 kinases (kinase named in each endpoint) (Homo sapiens, UniProt Q9H4B4); conditions: PLK3
T14 construct: purchased Reaction Biology

[15] = target: T15, 371 kinases (kinase named in each endpoint) (Homo sapiens, UniProt P11362); conditions: FGFR1
T15 construct: purchased Reaction Biology
T15 sequence (P11362 22-822): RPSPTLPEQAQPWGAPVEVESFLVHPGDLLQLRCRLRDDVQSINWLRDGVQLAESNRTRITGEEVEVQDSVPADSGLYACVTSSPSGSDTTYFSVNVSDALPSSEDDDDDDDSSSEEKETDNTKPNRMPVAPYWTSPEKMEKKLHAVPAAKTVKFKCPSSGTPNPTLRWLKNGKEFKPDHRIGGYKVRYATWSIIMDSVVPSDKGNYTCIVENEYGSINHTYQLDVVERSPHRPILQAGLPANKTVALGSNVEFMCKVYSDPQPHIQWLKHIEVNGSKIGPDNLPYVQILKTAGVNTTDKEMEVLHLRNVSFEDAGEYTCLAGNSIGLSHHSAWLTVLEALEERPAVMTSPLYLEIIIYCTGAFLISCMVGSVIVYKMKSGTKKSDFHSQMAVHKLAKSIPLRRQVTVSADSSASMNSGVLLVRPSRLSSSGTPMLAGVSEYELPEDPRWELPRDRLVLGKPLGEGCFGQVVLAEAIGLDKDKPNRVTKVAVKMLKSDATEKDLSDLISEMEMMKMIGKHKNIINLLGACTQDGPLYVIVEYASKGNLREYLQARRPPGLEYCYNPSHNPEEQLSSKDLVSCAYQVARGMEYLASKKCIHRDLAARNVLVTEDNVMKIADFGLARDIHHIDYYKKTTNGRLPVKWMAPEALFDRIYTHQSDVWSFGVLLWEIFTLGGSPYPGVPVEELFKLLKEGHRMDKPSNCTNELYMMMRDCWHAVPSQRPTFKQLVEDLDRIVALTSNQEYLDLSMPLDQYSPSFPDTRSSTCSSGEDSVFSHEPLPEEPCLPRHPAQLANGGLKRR

[16] = target: T16, 371 kinases (kinase named in each endpoint) (Homo sapiens, UniProt Q9BXA7); conditions: STK22D/TSSK1
T16 construct: purchased Reaction Biology

[17] = target: T17, 371 kinases (kinase named in each endpoint) (Homo sapiens, UniProt O14757); conditions: CHK1
T17 construct: purchased Reaction Biology

[18] = target: T18, 371 kinases (kinase named in each endpoint) (Homo sapiens, UniProt P23443); conditions: P70S6K/RPS6KB1
T18 construct: purchased Reaction Biology

[19] = target: T19, 371 kinases (kinase named in each endpoint) (Homo sapiens, UniProt Q96PF2); conditions: TSSK2
T19 construct: purchased Reaction Biology

[20] = target: T20, 371 kinases (kinase named in each endpoint) (Homo sapiens, UniProt P42679); conditions: CTK/MATK
T20 construct: purchased Reaction Biology

[21] = target: T21, 371 kinases (kinase named in each endpoint) (Homo sapiens, UniProt Q86UX6); conditions: STK32C/YANK3
T21 construct: purchased Reaction Biology

[22] = target: T22, 371 kinases (kinase named in each endpoint) (Homo sapiens, UniProt Q8TF76); conditions: HASPIN
T22 construct: purchased Reaction Biology

[23] = target: T23, 371 kinases (kinase named in each endpoint) (Homo sapiens, UniProt Q9UHD2); conditions: TBK1
T23 construct: purchased Reaction Biology

[24] = target: T24, 371 kinases (kinase named in each endpoint) (Homo sapiens, UniProt Q13976); conditions: PKG1A
T24 construct: purchased Reaction Biology

[25] = target: T25, 371 kinases (kinase named in each endpoint) (Homo sapiens, UniProt Q16832); conditions: DDR2
T25 construct: purchased Reaction Biology

[26] = target: T26, 371 kinases (kinase named in each endpoint) (Homo sapiens, UniProt Q9Y2U5); conditions: MEKK2
T26 construct: purchased Reaction Biology
T26 sequence (Q9Y2U5 whole entry): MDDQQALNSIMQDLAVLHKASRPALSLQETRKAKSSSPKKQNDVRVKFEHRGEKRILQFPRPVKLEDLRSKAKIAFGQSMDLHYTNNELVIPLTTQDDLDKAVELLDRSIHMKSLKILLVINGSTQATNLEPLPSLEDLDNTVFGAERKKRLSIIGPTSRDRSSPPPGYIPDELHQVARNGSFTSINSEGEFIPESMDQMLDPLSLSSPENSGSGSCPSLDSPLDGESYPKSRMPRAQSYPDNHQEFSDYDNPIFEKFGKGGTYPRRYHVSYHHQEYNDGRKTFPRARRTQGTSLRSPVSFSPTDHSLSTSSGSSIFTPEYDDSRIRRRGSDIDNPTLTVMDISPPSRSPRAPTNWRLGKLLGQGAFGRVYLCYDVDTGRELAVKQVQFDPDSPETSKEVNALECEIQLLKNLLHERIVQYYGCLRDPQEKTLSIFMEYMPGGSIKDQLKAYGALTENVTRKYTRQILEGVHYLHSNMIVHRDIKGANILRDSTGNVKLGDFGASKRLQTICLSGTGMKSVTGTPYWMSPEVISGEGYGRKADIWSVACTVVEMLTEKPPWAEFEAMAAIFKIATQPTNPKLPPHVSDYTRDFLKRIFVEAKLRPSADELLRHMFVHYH

[27] = target: T27, 371 kinases (kinase named in each endpoint) (Homo sapiens, UniProt Q14289); conditions: PYK2
T27 construct: purchased Reaction Biology
T27 sequence (Q14289 whole entry): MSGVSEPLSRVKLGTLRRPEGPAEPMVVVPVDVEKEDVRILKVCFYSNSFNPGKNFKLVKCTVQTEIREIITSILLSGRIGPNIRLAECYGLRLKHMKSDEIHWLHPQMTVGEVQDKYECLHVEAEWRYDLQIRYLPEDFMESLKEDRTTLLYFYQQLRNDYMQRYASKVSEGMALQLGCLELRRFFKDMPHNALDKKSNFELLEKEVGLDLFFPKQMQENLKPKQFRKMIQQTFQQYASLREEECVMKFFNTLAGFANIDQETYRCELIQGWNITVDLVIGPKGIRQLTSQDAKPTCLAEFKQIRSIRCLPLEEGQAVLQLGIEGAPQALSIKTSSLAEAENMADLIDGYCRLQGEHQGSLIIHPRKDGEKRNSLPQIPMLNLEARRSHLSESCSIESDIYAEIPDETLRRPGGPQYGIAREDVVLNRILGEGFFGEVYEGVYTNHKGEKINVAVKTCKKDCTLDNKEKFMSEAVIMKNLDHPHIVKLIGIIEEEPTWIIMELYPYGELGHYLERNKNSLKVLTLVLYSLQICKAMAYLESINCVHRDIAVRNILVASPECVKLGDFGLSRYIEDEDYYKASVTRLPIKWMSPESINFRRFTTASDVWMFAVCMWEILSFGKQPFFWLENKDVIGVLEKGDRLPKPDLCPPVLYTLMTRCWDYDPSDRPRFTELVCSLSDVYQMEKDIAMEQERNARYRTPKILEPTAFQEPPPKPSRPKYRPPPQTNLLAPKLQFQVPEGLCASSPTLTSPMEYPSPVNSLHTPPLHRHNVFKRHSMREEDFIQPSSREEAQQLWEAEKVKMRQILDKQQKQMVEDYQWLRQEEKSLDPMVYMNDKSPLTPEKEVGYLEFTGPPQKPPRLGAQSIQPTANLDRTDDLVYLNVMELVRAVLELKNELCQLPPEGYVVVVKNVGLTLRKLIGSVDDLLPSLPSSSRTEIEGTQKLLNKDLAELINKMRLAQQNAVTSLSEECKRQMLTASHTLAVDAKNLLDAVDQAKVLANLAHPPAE

[28] = target: T28, 371 kinases (kinase named in each endpoint) (Homo sapiens, UniProt Q16512); conditions: PKN1/PRK1
T28 construct: purchased Reaction Biology

[29] = target: T29, 371 kinases (kinase named in each endpoint) (Homo sapiens, UniProt Q9UEE5); conditions: DRAK1/STK17A
T29 construct: purchased Reaction Biology

[30] = target: T30, 371 kinases (kinase named in each endpoint) (Homo sapiens, UniProt P53671); conditions: LIMK2
T30 construct: purchased Reaction Biology

[31] = target: T31, 371 kinases (kinase named in each endpoint) (Homo sapiens, UniProt Q9NR20); conditions: DYRK4
T31 construct: purchased Reaction Biology
T31 sequence (Q9NR20 whole entry): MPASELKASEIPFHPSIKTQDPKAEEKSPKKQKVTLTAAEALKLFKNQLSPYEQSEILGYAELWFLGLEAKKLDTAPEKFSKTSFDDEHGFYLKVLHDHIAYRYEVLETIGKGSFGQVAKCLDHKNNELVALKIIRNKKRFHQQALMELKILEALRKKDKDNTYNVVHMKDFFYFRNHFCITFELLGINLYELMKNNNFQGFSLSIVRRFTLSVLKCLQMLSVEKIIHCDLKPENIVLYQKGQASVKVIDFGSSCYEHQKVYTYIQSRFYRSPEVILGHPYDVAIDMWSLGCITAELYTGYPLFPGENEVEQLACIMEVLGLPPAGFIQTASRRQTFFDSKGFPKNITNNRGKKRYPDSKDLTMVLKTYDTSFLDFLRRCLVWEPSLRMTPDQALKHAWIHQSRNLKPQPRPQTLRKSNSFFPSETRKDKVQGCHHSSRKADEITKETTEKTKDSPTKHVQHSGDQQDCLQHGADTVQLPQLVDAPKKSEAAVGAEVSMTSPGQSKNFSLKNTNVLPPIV

[32] = target: T32, 371 kinases (kinase named in each endpoint) (Homo sapiens, UniProt Q9H0K1); conditions: SIK2
T32 construct: purchased Reaction Biology

[33] = target: T33, 371 kinases (kinase named in each endpoint) (Homo sapiens, UniProt P42684); conditions: ABL2/ARG
T33 construct: purchased Reaction Biology
T33 sequence (P42684 whole entry): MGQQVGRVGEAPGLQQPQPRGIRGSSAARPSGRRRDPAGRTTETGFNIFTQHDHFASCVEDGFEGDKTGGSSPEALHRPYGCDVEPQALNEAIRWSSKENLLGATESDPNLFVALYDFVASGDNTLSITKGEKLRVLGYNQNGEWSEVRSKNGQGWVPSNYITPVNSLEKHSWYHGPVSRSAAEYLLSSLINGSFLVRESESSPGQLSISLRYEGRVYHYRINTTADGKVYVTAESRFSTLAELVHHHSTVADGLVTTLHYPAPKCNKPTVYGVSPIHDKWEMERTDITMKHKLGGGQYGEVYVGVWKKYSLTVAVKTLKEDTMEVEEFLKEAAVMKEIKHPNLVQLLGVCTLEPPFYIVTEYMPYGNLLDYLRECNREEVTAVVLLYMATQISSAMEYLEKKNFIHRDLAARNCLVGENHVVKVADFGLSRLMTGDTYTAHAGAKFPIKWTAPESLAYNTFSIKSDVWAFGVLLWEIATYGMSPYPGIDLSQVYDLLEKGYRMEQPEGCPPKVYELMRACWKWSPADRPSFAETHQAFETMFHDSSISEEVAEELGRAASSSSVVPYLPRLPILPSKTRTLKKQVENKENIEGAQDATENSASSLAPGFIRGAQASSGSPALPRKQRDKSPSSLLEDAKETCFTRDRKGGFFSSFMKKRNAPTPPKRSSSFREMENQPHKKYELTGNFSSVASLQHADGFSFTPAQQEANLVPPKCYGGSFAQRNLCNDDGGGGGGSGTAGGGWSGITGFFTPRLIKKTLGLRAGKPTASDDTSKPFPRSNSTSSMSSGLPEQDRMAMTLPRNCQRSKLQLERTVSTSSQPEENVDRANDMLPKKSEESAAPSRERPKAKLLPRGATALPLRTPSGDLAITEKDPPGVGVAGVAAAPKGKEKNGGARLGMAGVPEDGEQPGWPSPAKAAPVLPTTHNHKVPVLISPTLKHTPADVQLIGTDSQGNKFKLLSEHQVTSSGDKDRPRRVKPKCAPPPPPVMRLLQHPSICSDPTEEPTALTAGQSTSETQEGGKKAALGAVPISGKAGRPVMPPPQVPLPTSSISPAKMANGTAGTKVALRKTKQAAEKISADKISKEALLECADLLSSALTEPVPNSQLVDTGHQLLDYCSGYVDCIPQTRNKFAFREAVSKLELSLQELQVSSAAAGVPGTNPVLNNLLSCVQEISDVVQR

[34] = target: T34, 371 kinases (kinase named in each endpoint) (Homo sapiens, UniProt P06213); conditions: IR
T34 construct: purchased Reaction Biology

[35] = target: T35, 371 kinases (kinase named in each endpoint) (Homo sapiens, UniProt P50750)
T35 construct: purchased Reaction Biology
T35 sequence (P50750 whole entry): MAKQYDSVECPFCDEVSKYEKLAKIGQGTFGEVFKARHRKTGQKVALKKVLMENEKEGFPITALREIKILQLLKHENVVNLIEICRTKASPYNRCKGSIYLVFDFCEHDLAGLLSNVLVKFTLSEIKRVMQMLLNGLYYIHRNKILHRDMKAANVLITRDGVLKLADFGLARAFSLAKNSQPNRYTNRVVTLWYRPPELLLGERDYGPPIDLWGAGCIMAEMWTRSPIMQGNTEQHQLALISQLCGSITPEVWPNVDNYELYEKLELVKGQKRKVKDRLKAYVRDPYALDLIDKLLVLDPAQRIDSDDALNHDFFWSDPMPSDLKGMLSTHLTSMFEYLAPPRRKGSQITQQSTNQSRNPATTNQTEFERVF

[36] = target: T36, 371 kinases (kinase named in each endpoint) (Homo sapiens, UniProt Q05397); conditions: FAK/PTK2
T36 construct: purchased Reaction Biology

With `O=C(O)c1cc(C(F)(F)F)ccc1NCCc1c[nH]c2cc(Br)ccc12` [Compound 5, 2-((2-(6-Bromo-1H-indol-3-yl)ethyl)amino)−5-(trifluoromethyl)benzoic Acid] the activity at 10 µM [1] was 156 ± 1.8%, the activity at 10 µM [2] was 82.4 ± 1.3% and the activity at 10 µM [3] was 89.8%. For the same compound, the activity at 10 µM [4] was 95.4 ± 2%, the activity at 10 µM [5] was 72 ± 2.8% and the activity at 10 µM [6] was 101.2 ± 0.3%. It also gave an activity at 10 µM [7] of 94.7 ± 1.4%, an activity at 10 µM [8] of 244 ± 9% and an activity at 10 µM [9] of 96.7 ± 0.2%. It also gave an activity at 10 µM [10] of 59.4 ± 2.8%, an activity at 10 µM [11] of 67.3 ± 1.4% and an activity at 10 µM [12] of 92.7 ± 1.5%. It also gave an activity at 10 µM [13] of 87.7 ± 1.6%, an activity at 10 µM [14] of 79.3 ± 3.7% and an activity at 10 µM [15] of 102.6 ± 0.3%. It also gave an activity at 10 µM [16] of 103.5 ± 0.1%, an activity at 10 µM [17] of 95.2 ± 1.2% and an activity at 10 µM [18] of 85.4 ± 0.7%. For the same compound, the activity at 10 µM [19] was 79.9 ± 2.4%, the activity at 10 µM [20] was 71.1 ± 3.8% and the activity at 10 µM [21] was 100.2 ± 0.6%. For the same compound, the activity at 10 µM [22] was 59.9 ± 1.3%, the activity at 10 µM [23] was 117 ± 1.2% and the activity at 10 µM [24] was 101 ± 1.8%. It also gave an activity at 10 µM [25] of 103 ± 3.6%, an activity at 10 µM [26] of 107.9 ± 0.2% and an activity at 10 µM [27] of 75.6 ± 1.9%. It also gave an activity at 10 µM [28] of 123 ± 1.9%, an activity at 10 µM [29] of 109 ± 2.6% and an activity at 10 µM [30] of 75.1 ± 1.7%. The activity at 10 µM [31] was 96.9 ± 2.5%, the activity at 10 µM [32] was 81 ± 0.3% and the activity at 10 µM [33] was 94.7 ± 2.8%. The activity at 10 µM [34] was 64.7 ± 1.1%, the activity at 10 µM ([35]; CDK9/CYCLIN K) was 88.6 ± 0.7% and the activity at 10 µM ([35]; CDK9/CYCLIN T1) was 81.5 ± 1.5%. It also gave an activity at 10 µM ([35]; CDK9/CYCLIN T2) of 84.5 ± 0.4% and an activity at 10 µM [36] of 88.2 ± 1.5%.
